Test results: patent US11377393B2, “Method and composition for improving plant growth” (DANSTAR FERMENT AG, priority 2016, dated 2022)

Test system: triticale (var. Bellac)
Experiment: Effect of inactive yeast and/or yeast derivatives in combination with nitrogen sources on plant growth (pot test, dry weight of aerial parts)
Assay type: in vivo
Details: triticale seeds in 20 g soil, 30 days, nitrogen 15 kg/ha, applied liquid to soil, letters = significance groups (p<0,1 Dunnett)
Procedure: Seeds of triticale (var. Bellac) coated with insectide Gaucho 350 and fungicide Rédigo® (Bayer) were used in the study. The tested nitrogenous components were the following: urea and calcium nitrate.
Two seeds were grown in individual plastic pots or cells containing equal quantity of soil (20 g). The treatments T1 to T4, T6, T7, T9, T10 and T13 (see Table 1) were distributed randomly in lines, with each line comprising of all treatments. Treatments T1 to T4, T6, T7, T9, T10 and T13 were repeated seven times and the experiment was repeated twice over time.
The treatments T1 to T4, T6, T7, T9, T10 and T13 were applied, in a liquid form, directly in the soil surrounding the seeds. The treatments were mixed with sterile distilled water in a total 5 ml samples. For the negative control, 5 ml of sterile distilled water was added. Seeds were grown under controlled conditions for 30 days. Growth conditions were 18/15 C for 10/14 hours (day/night) and 70% RH. Growth measurements were taken by measuring length and dry weight of the aerial part of the plants.
The growth in weight of the plants (the dry weight of the aerial parts) for each treatment was compared by statistical analysis.

NC(N)=O [Treatment T3, Urea]
Dry weight gain average (Table 5, urea series): 0.153bc

O=[N+]([O-])[O-].O=[N+]([O-])[O-].[Ca+2] [Treatment T4, Calcium nitrate]
Dry weight gain average (Table 4, calcium nitrate series): 0.106b
